The text below walks through data of US8410161B2, “Thioxanthone ring system derivatives” (National Defense Medical Center, priority 2010, dated 2013).

Molecules are shown by their SMILES. Read-outs that look alike come from different tables or passages of the source.

Format in all cases: cell-based
For series [1], the system named is OVCAR-3. Description: NCI in vitro DTP human cell line screen, OVCAR-3. To be noted: Ovarian Cancer, 1.00E−5 Molar. The procedure: (§1) Then, a cell toxicity assay of the cancer lines made by National Cancer Institute will be discussed as follows. The cell toxicity assay is performed by choosing ten compounds (existing certification numbers) from the 59 compounds disclosed in the present invention first.

Series [2] has as its system M14. Put plainly: NCI in vitro DTP human cell line screen, M14. To be noted: Melanoma, 1.00E−5 Molar. The procedure: as §1
Series [3] is described as follows: MTT assay, HEL299 fibroblast. To be noted: human. An excerpt:
(§2) Please refer to FIG. 4C, various cell viabilities of the HEL299 cell lines can be obtained through the MTT assay while the compounds No. 1˜30 are used to treat HEL299 cell lines, wherein HEL299 cell lines are fibroblast.

Series [4] concerns SK-MEL-2. Description: NCI in vitro DTP human cell line screen, SK-MEL-2. To be noted: Melanoma, 1.00E−5 Molar. The procedure:
as §1

Series [5] relates to NCI-H522. Description: NCI in vitro DTP human cell line screen, NCI-H522. To be noted: Non-Small Cell Lung Cancer, 1.00E−5 Molar. Here is the method:
as §1

For series [6], the system named is HCC-2998. Put plainly: NCI in vitro DTP human cell line screen, HCC-2998. To be noted: Colon Cancer, 1.00E−5 Molar. The procedure:
as §1

Series [7] relates to NCI-H23. Description: NCI in vitro DTP human cell line screen, NCI-H23. To be noted: Non-Small Cell Lung Cancer, 1.00E−5 Molar. The procedure:
as §1

The test system of series [8] is HCT-116. Put plainly: NCI in vitro DTP human cell line screen, HCT-116. To be noted: Colon Cancer, 1.00E−5 Molar. Here is the method: as §1
The subject of series [9] is SF-295. Put plainly: NCI in vitro DTP human cell line screen, SF-295. To be noted: CNS Cancer, 1.00E−5 Molar. The procedure:
as §1

Series [10] concerns SK-MEL-5. Description: NCI in vitro DTP human cell line screen, SK-MEL-5. To be noted: Melanoma, 1.00E−5 Molar. The procedure: as §1
The subject of series [11] is CAKI-1. Put plainly: NCI in vitro DTP human cell line screen, CAKI-1. To be noted: Renal Cancer, 1.00E−5 Molar. Here is the method:
as §1

Series [12] relates to KM12. Put plainly: NCI in vitro DTP human cell line screen, KM12. To be noted: Colon Cancer, 1.00E−5 Molar. Here is the method:
as §1

Series [13] relates to SF-539. Description: NCI in vitro DTP human cell line screen, SF-539. To be noted: CNS Cancer, 1.00E−5 Molar. Here is the method: as §1
Series [14] relates to HL-60(TB). Put plainly: NCI in vitro DTP human cell line screen, HL-60(TB). To be noted: Leukemia, 1.00E−5 Molar. The procedure: as §1
Series [15] concerns HEL299 fibroblast. Put plainly: MTT assay, HEL299 fibroblast.
Source text: as §2

As to `CCCSc1ccc2c(=O)c3ccccc3sc2c1Cl` [No. 3, 4-Chloro-3-(propylthio)-9H-thioxanthen-9-one], the “Growth Percent” value in series [1] is reported as 90.35%; in series [2] it was 102.38%; in series [4] it was 114.59%; in series [5], 94.37%; in [6], 100.70%; in [7], 91.47%. In addition, the “Growth Percent” value in [8] was 61.89%; in series [9], 82.14%; in [10], 98.20%; in series [11], 78.97%; in series [12] it was 86.73%; in series [13], 82.48%. Further, the “Growth Percent” value in series [14] amounted to 118.59%. In series [3], the viability came out at 88.9 ± 11.1%.
On to `O=c1c2ccccc2sc2c(Cl)c(SCc3ccccc3)ccc12` [No. 23, 3-(Benzylthio)-4-chloro-9H-thioxanthen-9-one], for which the “Growth Percent” value in [1] is on record as 76.97%; in series [2], 102.67%; in series [4], 116.81%; in series [5], 95.48%; in series [6], 101.78%; in series [7], 97.59%. In addition, the “Growth Percent” value came out at 41.74% in series [8]; 63.22% in series [9]; 99.73% in series [10]; 54.75% in series [11]; 104.90% in series [12]; 102.89% in series [13]. Further, in series [14], the “Growth Percent” value came to 115.59%. Also, the viability in series [3] (HEL299, normal fibroblast, read-out: cell viabilities of HEL299 cell lines (MTT assay)) was 82.5%. Moreover, the “cell viabilities of HEL299 cell lines (MTT assay)” value in series [15] (HEL299, normal fibroblast) is on record as 85.2 ± 5.26%.
With `O=c1c2ccccc2sc2c(Cl)c(SCc3ccc(Cl)cc3)ccc12` [No. 26, 4-Chloro-3-(4-chlorobenzylthio)-9H-thioxanthen-9-one], the “Growth Percent” value came to 130.11% in series [1]; 101.01% in series [2]; 90.37% in [4]; 81.19% in series [5]; 107.66% in series [6]; 96.57% in series [7]. The “Growth Percent” value is recorded as 96.31% in series [8]; 112.42% in series [9]; 101.76% in series [10]; 98.76% in [11]; 107.42% in series [12]; 96.81% in series [13]. In addition, the “Growth Percent” value in [14] came to 105.29%. The compound further yielded a viability in series [3] of 58.7 ± 5.55%.
With `COc1ccc(CSc2ccc3c(=O)c4ccccc4sc3c2Cl)cc1` [No. 27, 4-Chloro-3-(4-methoxybenzylthio)-9H-thioxanthen-9-one], the “Growth Percent” value in series [1] was 125.16%; in series [2] it was 99.76%; in series [4], 104.94%; in [5], 94.65%; in series [6], 105.73%; in [7] it was 99.92%. Also, the “Growth Percent” value in [8] stood at 95.54%; in series [9], 107.03%; in series [10], 101.55%; in series [11], 102.18%; in series [12], 108.05%; in [13], 106.78%. Also, the “Growth Percent” value in series [14] amounted to 121.13%. In addition, the viability in series [3] came out at 92.4%. Moreover, in [15], the “cytotoxicity effect on the normal fibroblast (in words)” value is given as “without the cytotoxicity effect”.
